Experimental data published in patent publication US20120142771A1, “BIPHENYLACETAMIDE DERIVATIVE” (Dainippon Sumitomo Pharma Co., Ltd., priority 2008, published 2012).

Legend:
[1] = test system: maximum electroshock seizure (MES) model; experiment: Maximum electroshock seizure (MES) model test; format: in vivo, mice; conditions: for responders at 100 mg/kg / responders at 50 mg/kg: Mus musculus, po, 1 h, Slc: ddY male mice, 3 per group, electrical stimulation 1 hour after administration, inhibition of hind limb extension, read-out: MES (positive number/tested number) (converted); for responders at 100 mg/kg: 100 mg/kg oral; for responders at 50 mg/kg: 50 mg/kg oral
From the text: In order to evaluate the antiepileptic activity of each drug, maximum electroshock seizure (MES) model, subcutaneously pentetrazol-injected model (scPTZ), and amygdala kindling model in rats were used because they show a good clinical prediction.
Test 1: Test with Maximum Electroshock Seizure (MES) Model
Test 1 evaluates the anticonvulsant action of medicaments. Animal model used herein represents the clinical phenotypes of generalized tonic seizure and secondarily generalized tonic-clonic seizure. Test compounds (50 or 100 mg/kg) were orally administered to Slc: ddY male mice (3 mice in each group, body weight 20-30 g). After an hour of administration, their corneas were electrically stimulated (60 Hz, 25 mA, 0.2 second) to induce tonic convulsion (tonic extensor in their hind limbs). […] To the control mice, 0.5% tragacanth solution or 0.5% methylcellulose solution was administered.

[2] = test system: subcutaneously pentetrazol-injected model (scPTZ); experiment: Subcutaneously pentetrazol-injected model (scPTZ) test; format: in vivo, mice; conditions: pentetrazol 85 mg/kg s.c. after 1 hour; for responders at 50 mg/kg / responders at 100 mg/kg: Mus musculus, po, 1 h, read-out: scPTZ (positive number/tested number) (converted); for responders at 50 mg/kg: 50 mg/kg oral
From the text: In order to evaluate the antiepileptic activity of each drug, maximum electroshock seizure (MES) model, subcutaneously pentetrazol-injected model (scPTZ), and amygdala kindling model in rats were used because they show a good clinical prediction. […] Test with Subcutaneously Pentetrazol-Injected Model (scPTZ) Similar to Test 1, Test 2 evaluates the anticonvulsant action of medicaments. However, unlike Test 1, animal model used herein represents the clinical phenotypes of generalized absence seizure and myoclonic seizure. Test compounds (50 or 100 mg/kg) were orally administered to Slc: ddY male mice (3 mice in each group, body weight 20-30 g). After an hour, pentetrazol (85 mg/kg) was subcutaneously administered. […] To the control mice, 0.5% tragacanth solution or 0.5% methylcellulose solution was administered.

[3] = Slc: ddY male mice, 3 per group, observed 30 minutes for clonic convulsion
[4] = 100 mg/kg oral, Slc: ddY male mice, 3 per group, observed 30 minutes for clonic convulsion

Row | Compound | responders at 100 mg/kg [1] | responders at 50 mg/kg [2, 3] | responders at 100 mg/kg [2, 4] | responders at 50 mg/kg [1] | anticonvulsant action in maximum electroshock seizure (MES) model test ([1]; mice, oral 50 or 100 mg/kg, 1 hour after administration) | anticonvulsant action in subcutaneously pentetrazol-injected model (scPTZ) test ([2]; mice, oral 50 or 100 mg/kg) | scPTZ (positive number/tested number) [2, 4]
1 | NC(=O)Cc1cc(C(F)(F)F)ccc1-c1ccccc1 [Example 116] | 0% | 33.3% | 66.7% |  |  |  | 
2 | NC(=O)Cc1ccccc1-c1cc(F)cc(F)c1F [Example 67, 2-(2′,3′,5′-trifluorobiphenyl-2-yl)acetamide] | 66.7% | 66.7% | 66.7% | 66.7% | anticonvulsant action was observed | anticonvulsant action was observed | 
3 | NC(=O)C(O)c1cc(F)ccc1-c1cccc(F)c1 (stereo not drawn) [Example 188, 2-(3′,4-difluorobiphenyl-2-yl)-2-hydroxyacetamide] | 100% | 0% | 66.7% | 33.3% |  |  | 
4 | NC(=O)Cc1ccccc1-c1cc(Cl)ccc1Cl [Example 95, 2-(2′,5′-dichlorobiphenyl-2-yl)acetamide] | 66.7% | 0% | 100% | 33.3% |  |  | 
5 | NC(=O)Cc1cc(F)ccc1-c1ccc(C(F)(F)F)cc1 [Example 135] | 100% |  | 0% |  |  |  | 
6 | CNC(=O)Cc1ccccc1-c1ccccc1F [Example 28, 2-(2′-fluorobiphenyl-2-yl)-N-methylacetamide] | 100% | 0% | 66.7% | 0% |  |  | 
7 | Cc1ccc(-c2ccccc2)c(CC(N)=O)c1 [Example 111] | 0% | 33.3% | 66.7% |  |  |  | 
8 | CNC(=O)Cc1ccccc1-c1cccc(C(F)(F)F)c1F [Example 98] | 66.7% |  | 0% | 0% |  |  | 
9 | NC(=O)Cc1ccccc1-c1ccc(F)c(F)c1F [Example 89, 2-(2′,3′,4′-trifluorobiphenyl-2-yl)acetamide] | 100% | 33.3% | 66.7% | 0% |  |  | 
10 | NC(=O)C(O)c1ccccc1-c1cccc(Cl)c1 (stereo not drawn) [Example 180] | 100% |  | 33.3% | 33.3% |  |  | 
11 | CNC(=O)C(OC)c1ccccc1-c1ccccc1 (stereo not drawn) [Example 62, 2-(biphenyl-2-yl)-2-methoxy-N-methylacetamide] | 100% |  | 33.3% | 66.7% |  |  | 
12 | CNC(=O)Cc1ccccc1-c1ccc(F)cc1 [Example 23, 2-(4′-fluorobiphenyl-2-yl)-N-methylacetamide] | 100% |  | 33.3% | 100% |  |  | 
13 | CS(=O)(=O)c1ccc(-c2ccccc2CC(N)=O)cc1 [Example 77] | 0% |  |  |  |  |  | 2/3
14 | NC(=O)Cc1ccc(Cl)cc1-c1ccccc1 [Example 123] | 100% |  | 33.3% |  |  |  | 
15 | NC(=O)Cc1ccc([N+](=O)[O-])cc1-c1ccccc1 [Example 112] | 33.3% | 33.3% | 66.7% |  |  |  | 
16 | CN(C)C(=O)Cc1ccccc1-c1ccccc1F [Example 30, 2-(2′-fluorobiphenyl-2-yl)-N,N-dimethylacetamide] | 100% | 33.3% | 66.7% | 0% |  |  | 
17 | N#Cc1ccc(Cl)cc1-c1ccccc1CC(N)=O [Example 107] | 0% |  | 100% |  |  |  | 
18 | NC(=O)Cc1ccccc1-c1cc(F)c(F)cc1F [Example 69] | 33.3% |  | 66.7% |  |  |  | 
19 | CNC(=O)Cc1ccccc1-c1cccc(Br)c1 [Example 55] | 100% |  | 0% | 0% |  |  | 
